Test results: patent US20250230193A1, “CYCLIC COMPOUND HAVING SELECTIVE KRAS INHIBITORY EFFECT ON HRAS AND NRAS” (CHUGAI SEIYAKU KABUSHIKI KAISHA, priority 2022, published 2025)

Columns and labels:
[1] = molecular target: GDP-bound HRAS wild-type protein (Homo sapiens, UniProt P01112); experiment: Binding to HRAS by surface plasmon resonance (SPR), Single Cycle Kinetics; details: KD ratio, GDP-bound HRAS wild-type vs GDP-bound KRAS wild-type, SPR
[2] = molecular target: GDP-bound NRAS wild-type protein (Homo sapiens, UniProt P01111); experiment: Binding to NRAS by surface plasmon resonance (SPR), Single Cycle Kinetics; details: KD ratio, GDP-bound NRAS wild-type vs GDP-bound KRAS wild-type, SPR
Chain of GDP-bound NRAS wild-type protein (P01111 whole entry): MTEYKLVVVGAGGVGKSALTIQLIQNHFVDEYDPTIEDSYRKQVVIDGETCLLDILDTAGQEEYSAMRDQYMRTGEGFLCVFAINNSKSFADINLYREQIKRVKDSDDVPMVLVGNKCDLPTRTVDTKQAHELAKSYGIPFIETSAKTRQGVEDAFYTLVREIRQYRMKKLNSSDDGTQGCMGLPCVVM

Chain of GDP-bound HRAS wild-type protein (P01112 whole entry): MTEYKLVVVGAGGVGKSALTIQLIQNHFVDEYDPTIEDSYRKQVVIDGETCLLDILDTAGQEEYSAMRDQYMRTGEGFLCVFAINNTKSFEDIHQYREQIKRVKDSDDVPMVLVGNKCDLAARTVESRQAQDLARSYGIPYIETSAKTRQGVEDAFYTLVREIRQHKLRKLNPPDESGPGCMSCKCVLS

SMILES | HRAS/KRAS (ratio of KD value with respect to HRAS to KD value with respect to KRAS) [1] | NRAS/KRAS (ratio of KD value with respect to NRAS to KD value with respect to KRAS) [2]
CCO[C@@H]1C[C@H]2C(=O)NC3(CCC3)C(=O)N(C)[C@@H](C3CCCC3)C(=O)N(C)[C@H](C)CC(=O)N(C)[C@@H](CC)C(=O)N[C@@H]([C@@H](C)CC)C(=O)N(C)CC(=O)N(C)[C@H]3C/C=C\CCN(C3=O)[C@@H](Cc3ccc(C(F)(F)F)cc3)C(=O)N(C)CC(=O)N[C@@H](CCc3cc(F)c(C(F)(F)F)c(F)c3)C(=O)N2C1 [PP1095] | B (a compound having 3 or more and less than 10 is denoted as B) | B (a compound having 3 or more and less than 10 is denoted as B)
CCO[C@@H]1C[C@H]2C(=O)NC3(CCCC3)C(=O)N(C)[C@@H](C3CCCC3)C(=O)N(C)[C@H](C)CC(=O)N(C)[C@@H](CC(C)C)C(=O)N[C@@H]([C@@H](C)CC)C(=O)N(C)CC(=O)N(C)[C@H]3C/C=C\CCN(C3=O)[C@@H](Cc3ccc(C(F)(F)F)cc3)C(=O)N(C)CC(=O)N[C@@H](CCc3cc(F)c(C(F)(F)F)c(F)c3)C(=O)N2C1 [PP1096] | B (a compound having 3 or more and less than 10 is denoted as B) | B (a compound having 3 or more and less than 10 is denoted as B)
CCO[C@@H]1C[C@H]2C(=O)NC3(CCC3)C(=O)N(C)[C@@H](C3CCCC3)C(=O)N3CCC[C@@H]3CC(=O)N(C)[C@@H](CC)C(=O)N[C@@H]([C@@H](C)CC)C(=O)N(C)CC(=O)N(C)[C@H]3C/C=C\CCN(C3=O)[C@@H](Cc3ccc(C(F)(F)F)cc3)C(=O)N(C)CC(=O)N[C@@H](CCc3cc(F)c(C(F)(F)F)c(F)c3)C(=O)N2C1 [PP1097] | B (a compound having 3 or more and less than 10 is denoted as B) | B (a compound having 3 or more and less than 10 is denoted as B)
CCO[C@@H]1C[C@H]2C(=O)NC3(CCC3)C(=O)N(C)[C@@H](C3CCCC3)C(=O)N[C@H](C)CC(=O)N(C)[C@@H](CC)C(=O)N[C@@H]([C@@H](C)CC)C(=O)N(C)CC(=O)N(C)[C@H]3C/C=C\CCN(C3=O)[C@@H](Cc3ccc(C(F)(F)F)cc3)C(=O)N(C)CC(=O)N[C@@H](CCc3cc(F)c(C(F)(F)F)c(F)c3)C(=O)N2C1 [PP1098] | B (a compound having 3 or more and less than 10 is denoted as B) | B (a compound having 3 or more and less than 10 is denoted as B)
CCO[C@@H]1C[C@H]2C(=O)NC3(CCC3)C(=O)N(C)[C@@H](C3CCCC3)C(=O)N(C)[C@H](C)CC(=O)N(C)[C@@H](CC(C)C)C(=O)N[C@@H]([C@@H](C)CC)C(=O)N(C)CC(=O)N(C)[C@H]3C/C=C\CCN(C3=O)[C@@H](Cc3ccc(C(F)(F)F)cc3)C(=O)N(C)CC(=O)N[C@@H](CCc3cc(F)c(C(F)(F)F)c(F)c3)C(=O)N2C1 [PP1100] | B (a compound having 3 or more and less than 10 is denoted as B) | B (a compound having 3 or more and less than 10 is denoted as B)
CC[C@H](C)[C@@H]1NC(=O)[C@H](CC)N(C)C(=O)C[C@@H](C)N(C)C(=O)[C@H](C2CCCC2)N(C)C(=O)C2(CCCC2)NC(=O)[C@@H]2CCCN2C(=O)[C@H](CCc2cc(F)c(C(F)(F)F)c(F)c2)NC(=O)CN(C)C(=O)[C@H](Cc2ccc(C(F)(F)F)cc2)N2CC/C=C\C[C@@H](C2=O)N(C)C(=O)CN(C)C1=O [PP1101] | B (a compound having 3 or more and less than 10 is denoted as B) | B (a compound having 3 or more and less than 10 is denoted as B)
CC[C@H](C)[C@@H]1NC(=O)[C@H](CC(C)C)N(C)C(=O)C[C@@H](C)N(C)C(=O)[C@H](C2CCCC2)N(C)C(=O)C2(CCCC2)NC(=O)[C@@H]2CCCN2C(=O)[C@H](CCc2cc(F)c(C(F)(F)F)c(F)c2)NC(=O)CN(C)C(=O)[C@H](Cc2ccc(C(F)(F)F)cc2)N2CC/C=C\C[C@@H](C2=O)N(C)C(=O)CN(C)C1=O [PP1102] | A (a compound having 10 or more and less than 20 is denoted as A) | B (a compound having 3 or more and less than 10 is denoted as B)
CC[C@H](C)[C@@H]1NC(=O)[C@H](C)N(C)C(=O)C[C@@H](C(=O)N(C)C)N(C)C(=O)[C@H](C2CCCC2)N(C)C(=O)C2(CCC2)NC(=O)[C@@H]2CC(F)(F)CN2C(=O)[C@H](CCc2cc(F)c(C(F)(F)F)c(F)c2)NC(=O)CN(C)C(=O)[C@H](Cc2ccc(C(F)(F)F)cc2)N2CC/C=C\C[C@@H](C2=O)N(C)C(=O)CN(C)C1=O [PP1103] | B (a compound having 3 or more and less than 10 is denoted as B) | A (a compound having 10 or more and less than 20 is denoted as A)
CCO[C@@H]1C[C@H]2C(=O)NC3(CCCC3)C(=O)N(C)[C@@H](C3CCCC3)C(=O)N(C)[C@H](C(=O)N(C)C)CC(=O)N(C)[C@@H](C)C(=O)N[C@@H]([C@@H](C)CC)C(=O)N(C)CC(=O)N(C)[C@H]3C/C=C\CCN(C3=O)[C@@H](Cc3ccc(C(F)(F)F)cc3)C(=O)N(C)CC(=O)N[C@@H](CCc3cc(F)c(C(F)(F)F)c(F)c3)C(=O)N2C1 [PP1104] | A (a compound having 10 or more and less than 20 is denoted as A) | A (a compound having 10 or more and less than 20 is denoted as A)
CCO[C@@H]1C[C@H]2C(=O)NC3(CCCC3)C(=O)N(C)[C@@H](C3CCCC3)C(=O)N(C)[C@H](C(=O)N(C)C)CC(=O)N(C)[C@@H](CC(C)C)C(=O)N[C@@H]([C@@H](C)CC)C(=O)N(C)CC(=O)N(C)[C@H]3C/C=C\CCN(C3=O)[C@@H](Cc3ccc(C(F)(F)F)cc3)C(=O)N(C)CC(=O)N[C@@H](CCc3cc(F)c(C(F)(F)F)c(F)c3)C(=O)N2C1 [PP1105] | A (a compound having 10 or more and less than 20 is denoted as A) | A (a compound having 10 or more and less than 20 is denoted as A)
CC[C@H](C)[C@@H]1NC(=O)[C@H](CC)N(C)C(=O)C[C@@H](C(=O)N(C)C)N(CC)C(=O)[C@H](C2CCCC2)N(C)C(=O)C2(CCC2)NC(=O)[C@@H]2CCCN2C(=O)[C@H](CCc2cc(F)c(C(F)(F)F)c(F)c2)NC(=O)CN(C)C(=O)[C@H](Cc2ccc(C(F)(F)F)cc2)N2CC/C=C\C[C@@H](C2=O)N(C)C(=O)CN(C)C1=O [PP1106] | A (a compound having 10 or more and less than 20 is denoted as A) | A (a compound having 10 or more and less than 20 is denoted as A)
CCO[C@@H]1C[C@H]2C(=O)NC3(CCC3)C(=O)N(C)[C@@H](C3CCCC3)C(=O)N(C)[C@H](C(=O)N(C)C)CC(=O)N(C)[C@@H](CC(C)C)C(=O)N[C@@H]([C@@H](C)CC)C(=O)N(C)CC(=O)N(C)[C@H]3C/C=C\CCN(C3=O)[C@@H](Cc3ccc(C(F)(F)F)cc3)C(=O)N(C)CC(=O)N[C@@H](CCc3cc(F)c(C(F)(F)F)c(F)c3)C(=O)N2C1 [PP1107] | A (a compound having 10 or more and less than 20 is denoted as A) | A (a compound having 10 or more and less than 20 is denoted as A)
CCO[C@@H]1C[C@H]2C(=O)NC3(CCC3)C(=O)N(C)[C@@H](C3CCCC3)C(=O)N(C)[C@H](C(=O)N(C)C)CC(=O)N(C)[C@@H](C)C(=O)N[C@@H]([C@@H](C)CC)C(=O)N(C)CC(=O)N(C)[C@H]3C/C=C\CCN(C3=O)[C@@H](Cc3ccc(C(F)(F)F)cc3)C(=O)N(C)CC(=O)N[C@@H](CCc3cc(F)c(C(F)(F)F)c(F)c3)C(=O)N2C1 [PP1108] | A (a compound having 10 or more and less than 20 is denoted as A) | A (a compound having 10 or more and less than 20 is denoted as A)
CCO[C@@H]1C[C@H]2C(=O)NC3(CCC3)C(=O)N(C)[C@@H](C3CCCC3)C(=O)N(C)[C@H](C(=O)N(C)C)CC(=O)N(C)[C@@H](C(C)C)C(=O)N[C@@H]([C@@H](C)CC)C(=O)N(C)CC(=O)N(C)[C@H]3C/C=C\CCN(C3=O)[C@@H](Cc3ccc(C(F)(F)F)cc3)C(=O)N(C)CC(=O)N[C@@H](CCc3cc(F)c(C(F)(F)F)c(F)c3)C(=O)N2C1 [PP1109] | B (a compound having 3 or more and less than 10 is denoted as B) | A (a compound having 10 or more and less than 20 is denoted as A)
CCC[C@H]1C(=O)N[C@@H]([C@@H](C)CC)C(=O)N(C)CC(=O)N(C)[C@H]2C/C=C\CCN(C2=O)[C@@H](Cc2ccc(C(F)(F)F)cc2)C(=O)N(C)CC(=O)N[C@@H](CCc2cc(F)c(C(F)(F)F)c(F)c2)C(=O)N2C[C@H](OCC)C[C@H]2C(=O)NC2(CCC2)C(=O)N(C)[C@@H](C2CCCC2)C(=O)N(C)[C@H](C(=O)N(C)C)CC(=O)N1C [PP1110] | B (a compound having 3 or more and less than 10 is denoted as B) | A (a compound having 10 or more and less than 20 is denoted as A)
CCO[C@@H]1C[C@H]2C(=O)NC3(CCC3)C(=O)N(C)[C@@H](C3CCCC3)C(=O)N(C)[C@H](C(=O)N(C)C)CC(=O)N(C)[C@@H](CC3CC3)C(=O)N[C@@H]([C@@H](C)CC)C(=O)N(C)CC(=O)N(C)[C@H]3C/C=C\CCN(C3=O)[C@@H](Cc3ccc(C(F)(F)F)cc3)C(=O)N(C)CC(=O)N[C@@H](CCc3cc(F)c(C(F)(F)F)c(F)c3)C(=O)N2C1 [PP1111] | A (a compound having 10 or more and less than 20 is denoted as A) | A (a compound having 10 or more and less than 20 is denoted as A)
